Activity calls are given as the source filed them.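 Rule for the calls: active = caspase luminescence falls with dose and the half-maximal concentration AC50 from the fitted curve is at or below a set limit; inconclusive = flat fit at 30 to 70% signal loss, or invalid fit; inactive = AC50 above the limit, or signal rises instead.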 A value given as a limit tells only on which side of the number the result lay.

The subject of the experiment is INS-1E cytokine-induced caspase-3/7, Caspase-Glo luminescence, 48 h. Kind of experiment: suppression of cytokine-driven beta-cell apoptosis – INS-1E rat cells, luminescence, orthogonal assay for beta-cell apoptosis protection project, dose response (AID 463206).
For `COc1ccc2c(C(=O)NCc3ccc4c(c3)OCO4)c(-c3ccc(S(C)(=O)=O)cc3)sc2c1`, the AC50 was > 26 µM (inactive).
The same measure for `CCOc1ccc(-n2c(-c3ccccc3)c[n+]3c2CCCCC3)cc1`: > 26 µM (inactive).
The figure for `O=C(N=Nc1c(O)n(Cc2ccccc2)c2ccccc12)c1cc2ccccc2cc1O` is > 26 µM (inactive).
The figure for `COc1ccc(/C=N/Nc2cc(C)nc(-n3nc(C)cc3C)n2)c(OC)c1` is > 26 µM (inactive); for `C#CCn1c(=NC(=O)c2ccc(S(=O)(=O)N3CCc4ccccc4C3)cc2)sc2cc(S(N)(=O)=O)ccc21` it is > 26 µM (inactive).
As for `CCCCC(CC)CN=C(N)NC(N)=NCCCCCCN=C(N)NC(N)=NCC(CC)CCCC` (stereo unspecified), the AC50 is > 26 µM (inactive).
The figure for `C=CC[C@@H](CC(=O)N(CCO)Cc1ccccc1)C(=O)N[C@H](COC(=O)[C@@H](CC=C)CC(=O)OC(C)(C)C)c1ccccc1` is > 26 µM (inactive).
The same measure for `O=C(Nc1ccc(F)cc1F)N1CCCN(CCOc2ccccc2)CC1`: > 26 µM (inactive); for `CC(=O)Nc1ccc(C2=CC(=O)C[C@H](c3ccc4c(c3)OCO4)C2)cc1`: > 26 µM (inactive).
The same measure for `CCN(CC)S(=O)(=O)c1ccc(Cl)c(C(=O)Nc2ccc(Cl)cc2[N+](=O)[O-])c1`: > 26 µM (inactive); for `Oc1ccc(CN2CCCc3ccccc32)c2cccnc12`: > 26 µM (inactive); for `CC(C)NC(=S)NC(c1ccccc1)(c1ccccc1)c1ccccc1`: > 26 µM (inactive).
For `CCN(CC)c1ccc(/C=N/NC(=O)c2cnccn2)c(O)c1`, the AC50 is > 26 µM (inactive).
The same measure for `Cc1ccc(NC(=O)c2c(-c3c(F)cccc3Cl)noc2C)cc1F`: > 12 µM (inactive); for `O=C(N/N=C/c1ccc(O)cc1O)c1ccc(NC(=O)C2CCCCC2)cc1`: > 26 µM (inactive).
For `O=S(=O)(NCc1ccncc1)c1ccc(Br)s1`, the AC50 is > 26 µM (inactive).
The figure for `CCN(CC)c1ccc(N=C2C(=O)Nc3ccccc32)cc1` is > 26 µM (inactive); for `Cc1ccc(F)c([C@H]2C3C=CCC(c4ccccc4)C3C(=O)N2Cc2ccccc2)c1` (stereo partly specified) it is > 26 µM (inactive); for `COc1ccccc1N1CCN(c2ncc(C(=O)N3CCN(c4cccc(Cl)c4)CC3)c3ccccc23)CC1` it is > 26 µM (inactive).
For the compound `CCOC(=O)c1cnc(-n2nc(C)cc2C)nc1Nc1ccc(N(C)C)cc1`, the AC50 was > 26 µM (inactive).
The same measure for `CCc1c(C2(O)CCCCC2)[nH]c2cc(C(F)(F)F)ccc12`: > 26 µM (inactive); for `COc1ccc(N(C)S(=O)(=O)c2cccc(C(=O)Nc3nc(C)c(C(C)=O)s3)c2)cc1`: > 26 µM (inactive); for `CCc1nc(N2CCN(C(C)=O)CC2)c2c3c(sc2n1)CC(C(C)(C)C)CC3` (stereo unspecified): > 26 µM (inactive).
The figure for `O=C1/C(=C/c2cccnc2)CCC/C1=C\c1cccnc1` is > 26 µM (inactive).
The same measure for `CCC(CNc1cc(OC)cc2cccnc12)NC1CCCCC1` (stereo unspecified): > 26 µM (inactive); for `C=CCN(CC=C)Cc1c[nH]c2ccccc12`: 26.3 µM.
Turning to `CCN(CC)CCC(=O)Nc1cccc2c1C(=O)c1ccccc1C2=O`, the half-maximal activity concentration (AC50) was 2.26 µM.
The figure for `Cc1occc(=O)c1OC(=O)Nc1ccc(Cl)c(Cl)c1` is > 26 µM (inactive).
On to `COc1ccc(-c2nn(-c3ccccc3)cc2/C=N/Nc2ccc3ccccc3n2)cc1OC`, for which the AC50 is > 26 µM (inactive).
On to `COc1ccccc1CNCC(O)Cn1c2ccccc2c2ccccc21` (stereo unspecified), for which the AC50 was > 26 µM (inactive).
The same measure for `Cc1ccc(/C=C/C(=O)c2ccc([N+](=O)[O-])o2)cc1`: > 26 µM (inactive).
Take `Cc1ccccc1C(=O)Nc1cccc(C(=O)N/N=C/c2cc(Cl)cc([N+](=O)[O-])c2O)c1`: the AC50 is > 26 µM (inactive).
The figure for `Cn1c(SCC(=O)N/N=C/c2ccc([N+](=O)[O-])s2)nnc1-c1ccccc1` is > 26 µM (inactive); for `O=C(Nc1ccc(OC(F)F)cc1)Nc1cccc(C(F)(F)F)c1` it is > 26 µM (inactive); for `COc1ccc(C(NC(C)=O)c2cc(Cl)c3cccnc3c2O)cc1` (stereo unspecified) it is > 26 µM (inactive).
The figure for `O=C(CSC1=NCCS1)Nc1ccnc2ccccc12` is > 26 µM (inactive).
The same measure for `CNc1nc(N)c([N+](=O)[O-])c(Nc2cccc(F)c2)n1`: > 26 µM (inactive).
Consider `CCOC(=O)N1CCN(Cc2cc(Cl)c3cccnc3c2O)CC1`, for which the AC50 was > 26 µM (inactive).
The figure for `O=C(Nc1cccc(NC(=O)c2ccccc2Cl)c1)c1ccc([N+](=O)[O-])o1` is > 26 µM (inactive).
The same measure for `Cc1ccc(N=Cc2c(C)[nH]n(-c3nc4ccccc4[nH]3)c2=O)cc1`: > 26 µM (inactive); for `Cc1ccc(S(=O)(=O)/N=C2\C(=O)c3ccccc3C([O-])=C2n2cc[n+](CCC(C)C)c2)cc1`: > 26 µM (inactive); for `C=C(C(=O)c1ccccc1)C(C)C(=C)C(=O)c1ccccc1`: > 26 µM (inactive).
Turning to `COc1ccc(/C=C/c2nc3ccccc3n2C)cc1`, the AC50 was > 26 µM (inactive).
The figure for `Cc1c(/C=N/Nc2nc3ccccc3[nH]2)c2ccccc2n1C` is > 26 µM (inactive); for `Cc1cc(C)nc(N/N=C/c2cc(Br)ccc2O)n1` it is > 26 µM (inactive); for `Cc1cc(C)n(-c2nc(NCCCO)c3c4c(sc3n2)CCCC4)n1` it is > 26 µM (inactive).
The figure for `CCOc1ccc(/C=N/NC(=O)c2[nH]ncc2Br)c(O)c1` is > 26 µM (inactive).
The same measure for `CC1CCC(C(C)C)C(OC(=O)Cn2c(-c3ccc(Br)cc3)[n+](C)c3ccccc32)C1` (stereo unspecified): > 26 µM (inactive); for `Cc1cccc(NC(=O)Nc2cccc(Oc3c(F)c(F)c(F)c(F)c3F)c2)c1`: > 26 µM (inactive); for `c1ccc2c(CN3CCCCCCC3)c[nH]c2c1`: > 26 µM (inactive).
Take `CC(=O)Nc1ccc(Nc2c3ccccc3nc3ccccc23)cc1`: the half-maximal activity concentration (AC50) was 8.76 µM.
The figure for `Cn1nccc1C(=O)NC1CCCc2c1cnn2-c1ccccc1F` (stereo unspecified) is > 26 µM (inactive); for `CN(C)S(=O)(=O)c1ccc(Nc2nc(C3CC3)nc3c2nnn3Cc2ccccc2Cl)cc1` it is > 26 µM (inactive); for `Cc1ccc(NC(=O)C2CCN(S(=O)(=O)c3ccc(N4CCCC4=O)cc3)CC2)cc1Cl` it is > 26 µM (inactive).
The same measure for `CCCC(=O)NC(c1cccs1)c1cc(Cl)c2cccnc2c1O` (stereo unspecified): > 26 µM (inactive).
The figure for `CCOC(=O)c1c(C)oc2c1C(=O)c1ccccc1C2=O` is > 26 µM (inactive); for `Cc1cc2nc(-c3ccc[nH]c3=O)[nH]c2cc1C` it is > 26 µM (inactive).
For the compound `O=[N+]([O-])c1ccc(/C=N/Nc2ccnc3cc(Cl)ccc23)o1`, the half-maximal activity concentration (AC50) was 19.8 µM.
Take `Cn1c(SCC(=O)N/N=C/c2ccc([N+](=O)[O-])s2)nnc1-c1ccc(Cl)cc1`: the AC50 is > 26 µM (inactive).
The same measure for `Cc1ccc(C2(c3ccc(C)cc3)CC2C(=O)Nc2ccc([N+](=O)[O-])cc2O)cc1` (stereo unspecified): > 26 µM (inactive); for `CCCCCCCC[n+]1cccc2c3ccccc3ccc21`: > 26 µM (inactive); for `O=C(Nc1ccc(F)cc1)c1cccnc1`: > 26 µM (inactive).
The figure for `CC(=O)c1ccccc1OCCOCCOc1ccccc1C(C)=O` is > 26 µM (inactive).
The figure for `CCOC(=O)CSc1nc2c(c(=O)[nH]1)C(C)(CC)Cc1ccccc1-2` (stereo unspecified) is > 26 µM (inactive); for `CCCCn1cnc2c(c(-c3ccccc3)c(-c3ccccc3)n2Cc2ccco2)c1=N` it is > 26 µM (inactive).
For `COc1cc(OC)c2cc(C(=O)N/N=C/c3ccccc3O)[nH]c2c1`, the AC50 is > 26 µM (inactive).
The same measure for `Nc1nc2ccccc2n1/N=C/c1ccc([N+](=O)[O-])s1`: > 26 µM (inactive).
The figure for `CCOC(=O)C(NCCc1ccc(F)cc1)(NC(=O)CC)C(F)(F)F` (stereo unspecified) is > 26 µM (inactive); for `CCn1c(SCC(=O)Nc2ccc(OC)cc2)nc2nc3c(cc2c1=O)CCCC3` it is > 26 µM (inactive).
The same measure for `CC(C)(C)c1cc([N+](=O)[O-])cc(C(C)(C)C)c1O`: > 26 µM (inactive).
Take `FC(F)(F)c1nnc(-c2ccccc2)nc1Sc1ccc(Cl)cc1`: the AC50 was > 26 µM (inactive).
As to `C[C@H]1CCC/C=C/[C@@H]2C[C@H](O)C[C@H]2[C@H](O)/C=C/C(=O)O1`, the AC50 was > 26 µM (inactive).
Consider `N#C/C(=C/c1ccc(N2CCCCCC2)o1)c1ccc(Cl)cc1`, for which the AC50 was > 26 µM (inactive).
The figure for `O=C(c1ccc2c(c1)[nH]c(=S)n1c3ccccc3nc21)N1CCN(c2cccc(Cl)c2)CC1` is > 26 µM (inactive); for `Cc1cc(C)nc(-n2nc(C)cc2Nc2ccccc2)n1` it is > 26 µM (inactive).
The same measure for `Cc1ccc(NC(=O)C2=C(c3ccccc3)S(=O)(=O)CCS2(=O)=O)cc1`: > 26 µM (inactive); for `OCCCNc1c2ccccc2nc2ccccc12`: 7.37 µM.
As to `CCOC(=O)c1c(C)[nH]c(C)c1C(=O)CSc1nc2ccccc2c(=O)n1-c1ccc(CC)cc1`, the AC50 was > 26 µM (inactive).
The figure for `CCCCCc1cc(=O)oc2c(C(CCN3CCCCC3)c3ccc4c(c3)OCO4)c(OC)cc(OC)c12` (stereo unspecified) is > 26 µM (inactive); for `COc1cccc(/C=N\NC(=O)c2ccc(Cn3cc(Br)c([N+](=O)[O-])n3)o2)c1O` it is > 26 µM (inactive); for `O=C(N/N=C/c1ccc(O)c2ncccc12)c1cccc(Br)c1` it is > 26 µM (inactive).
The figure for `COc1ccc(C(NC(C)=O)c2ccc3cccnc3c2O)c(OC)c1` (stereo unspecified) is > 26 µM (inactive); for `COc1ccc(OC)c(NC(=O)CSc2nnc(-c3cccnc3)s2)c1` it is > 26 µM (inactive).
Consider `COc1ccc(N/N=C(/N=Nc2nc(C)cc(=O)[nH]2)c2ccccc2)cc1`, for which the AC50 is > 26 µM (inactive).
The same measure for `CCCCNC1=CC(=O)C(=O)c2ccccc21`: > 26 µM (inactive); for `CCCCCCCCCCOC(=O)C[N+](C)(C)C/C=C(/C)Cl`: > 26 µM (inactive).

The AC50 is the midpoint of the concentration-response curve, whichever way the signal moves.

Values taken from PubChem BioAssay AID463206 (Broad Institute, 2010).
